Experiments:
[1] = tested on: alkaline phosphatase activity in T47D cells; assay: Effects of progestins and antiprogestins on alkaline phosphatase activity in T47D cells (antagonist mode); type: cell-based; details: Homo sapiens, in the presence of 1 nM progesterone, 24 h, read-out: T47D Alkaline Phosphatase Activity IC50 (nM) or % inhibition
[2] = biological target: T1, progesterone receptor (PR) (Homo sapiens, UniProt P06401); assay: Progesterone receptor whole cell competition binding assay using T47D cells; details: intact T47D cells, 3 nM 3H-progesterone, 3 h at 37° C.
T1 construct: in live, intact (whole) cells using the human breast carcinoma T47D cell line; endogenous in cells; host or cells: T47D human breast carcinoma cells
T1 sequence (P06401 1-933): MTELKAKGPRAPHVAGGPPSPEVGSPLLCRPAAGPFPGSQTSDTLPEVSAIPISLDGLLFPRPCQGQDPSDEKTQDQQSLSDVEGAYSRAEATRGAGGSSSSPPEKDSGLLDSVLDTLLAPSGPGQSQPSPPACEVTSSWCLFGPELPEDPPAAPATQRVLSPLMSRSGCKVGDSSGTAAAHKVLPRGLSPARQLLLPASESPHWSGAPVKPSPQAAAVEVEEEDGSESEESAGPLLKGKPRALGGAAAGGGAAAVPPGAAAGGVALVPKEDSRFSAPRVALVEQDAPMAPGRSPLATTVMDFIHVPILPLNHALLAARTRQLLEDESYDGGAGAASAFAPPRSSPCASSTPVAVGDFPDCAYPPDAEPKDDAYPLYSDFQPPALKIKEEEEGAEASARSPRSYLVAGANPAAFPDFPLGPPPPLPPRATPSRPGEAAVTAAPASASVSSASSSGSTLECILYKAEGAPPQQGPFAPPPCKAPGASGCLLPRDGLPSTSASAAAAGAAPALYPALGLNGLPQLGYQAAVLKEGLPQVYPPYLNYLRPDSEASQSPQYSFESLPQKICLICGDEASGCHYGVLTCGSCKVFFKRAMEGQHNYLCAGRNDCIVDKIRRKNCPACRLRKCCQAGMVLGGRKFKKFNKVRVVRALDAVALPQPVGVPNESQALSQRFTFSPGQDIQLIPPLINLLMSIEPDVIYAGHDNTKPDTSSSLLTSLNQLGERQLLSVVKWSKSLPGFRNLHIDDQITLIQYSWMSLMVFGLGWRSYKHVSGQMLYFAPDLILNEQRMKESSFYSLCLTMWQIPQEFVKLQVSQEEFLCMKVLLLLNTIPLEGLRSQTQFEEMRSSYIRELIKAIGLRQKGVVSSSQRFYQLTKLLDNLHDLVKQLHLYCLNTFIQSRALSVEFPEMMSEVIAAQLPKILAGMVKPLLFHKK
Experimental: (2) Progesterone Receptor Whole Cell Competition Binding Assay Using T47D Cells
PURPOSE: To evaluate the progesterone receptor (PR) binding activity of progestins or antiprogestins in live, intact (whole) cells using the human breast carcinoma T47D cell line and ^3H-progesterone as the labeled ligand.
Culture Medium: • 5% RC: phenol red free DMEM:F12 (1:1) (GIBCO, BRL) supplemented with 5% (v/v) charcoal stripped fetal bovine serum (not heat-inactivated), 100 U/mL penicillin, 100 μg/mL streptomycin, and 2 mM the GlutaMax™ reagent (GIBCO, BRL). • 10% RC: Same as above supplemented with 10% (v/v) FBS. • ^3H-Progesterone: Perkin Elmer Life Science, cat# NET-381 (typically around 102 Ci/mmol)
T47D cells were maintained in 10% RC media at 37° C. in a 5% CO2/humidified atmosphere and were split twice weekly for proper response. Cells were plated in 10% RC the day before binding assay at 50,000 cells per well in the white, clear bottom plates purchased through VWR or Perkin Elmer.
Cells plated the day prior to the assay in white clear bottom plates were used. A master compound plate was set up containing control and test compounds at 20× final desired concentration for the competition binding. A typical dose range of 20× concentrations were (in nM); 200,000; 20,000; 6000; 2000; 600; 200; 20; and 2. Final concentrations were (in nM); 10,000; 1000; 300; 100; 30; 10; 1; 0.1. Control compounds were typically run 10-fold lower than this and include a 0, or vehicle, control well. A stock of 60 nM ^3H-progesterone (20×) were also prepared at a volume needed of 10 μL per well.
Media on cells were replaced with 180 μL of 5% RC. Ten microliters (10 μL) of 60 nM ^3H-progesterone (for final concentration of 3 nM) was added immediately, followed by 10 μL of 20× test or control compounds. Compounds were incubated for 3 h at 37° C. (A time course study found no difference between 2 and 4 h incubation.)
Following incubation, media was carefully removed and cells were washed 3× with 200 μL 5% RC each wash. Fifty microliters of liquid scintillation cocktail was added and the plates were shaken vigorously for a minimum of 15 min. Plates were read on the Wallac Microbeta® 1450 plate reader.
Square root-transformed data were used for analysis of variance and calculation of IC50. SAS software (SAS Institute, Inc.) was used for all the statistical analysis.
Progesterone was used as a reference progestin and RU486 as a reference antiprogestin.

SMILES	melting point	IC50 [1]	Ki [2]
O=C1OC[C@@H](Cc2ccccc2)N1c1nc(-c2ccc(Br)cc2)cs1 [Example 36, (4R)-4-Benzyl-3-[4-(4-bromophenyl)-1,3-thiazol-2-yl]-1,3-oxazolidin-2-one]	177 to 179 °C	346 nM	968 nM
CC(C)C[C@H]1COC(=O)N1c1nc(-c2ccc(Br)cc2)cs1 [Example 37, (4S)-3-[4-(4-Bromophenyl)-1,3-thiazol-2-yl]-4-isobutyl-1,3-oxazolidin-2-one]	144 to 146 °C	359 nM	566 nM
CC(C)C1COC(=O)N1c1nc(-c2ccc(Br)cc2)cs1 (stereo not drawn) [Example 38, 3-[4-(4-Bromophenyl)-1,3-thiazol-2-yl]-4-isopropyl-1,3-oxazolidin-2-one]	174 to 176 °C	75.6 nM	108 nM
CCCC1COC(=O)N1c1nc(-c2ccc(C#N)cc2)cs1 (stereo not drawn) [Example 40, 4-[2-(2-Oxo-4-propyl-1,3-oxazolidin-3-yl)-1,3-thiazol-4-yl]benzonitrile]	132 to 134 °C	9.9 nM	42 nM
CC1CN(c2nc(-c3ccc(C#N)cc3)cs2)C(=O)O1 (stereo not drawn) [Example 41, 4-[2-(5-Methyl-2-oxo-1,3-oxazolidin-3-yl)-1,3-thiazol-4-yl]benzonitrile]	214 to 216 °C	48.3 nM	284 nM
CCC1CN(c2nc(-c3ccc(C#N)cc3)cs2)C(=O)O1 (stereo not drawn) [Example 42, 4-[2-(5-Ethyl-2-oxo-1,3-oxazolidin-3-yl)-1,3-thiazol-4-yl]benzonitrile]	168 to 170 °C	117 nM	700 nM
CCCCC1COC(=O)N1c1nc(-c2ccc(C#N)cc2)cs1 (stereo not drawn) [Example 48, 4-[2-(4-Butyl-2-oxo-1,3-oxazolidin-3-yl)-1,3-thiazol-4-yl]benzonitrile]	134 to 137 °C	23.3 nM	128 nM
CCC1COC(=O)N1c1nc(-c2ccc(Br)cc2)cs1 (stereo not drawn) [Example 49, 3-[4-(4-Bromophenyl)-1,3-thiazol-2-yl]-4-ethyl-1,3-oxazolidin-2-one]	148.5 °C	39 nM	68 nM
CC1COC(=O)N1c1nc(-c2ccc(Br)cc2)cs1 (stereo not drawn) [Example 50, 3-[4-(4-Bromophenyl)-1,3-thiazol-2-yl]-4-methyl-1,3-oxazolidin-2-one]	189 to 190 °C	17.7 nM	36.6 nM
CC1COC(=O)N1c1nc(-c2ccc(C#N)cc2)cs1 (stereo not drawn) [Example 51, 4-[2-(4-Methyl-2-oxo-1,3-oxazolidin-3-yl)-1,3-thiazol-4-yl]benzonitrile]	215 to 216 °C	16.1 nM	42.6 nM
CC1(C)COC(=O)N1c1nc(-c2ccc(C#N)cc2)c(F)s1 [Example 58, 4-[2-(4,4-dimethyl-2-oxo-1,3-oxazolidin-3-yl)-5-fluoro-1,3-thiazol-4-yl]benzonitrile]	177 to 178 °C	4 nM	16.1 nM
O=C1OCC(C(F)(F)F)N1c1nc(-c2ccc(Br)cc2)cs1 (stereo not drawn) [Example 64, 3-[4-(4-Bromophenyl)-1,3-thiazol-2-yl]-4-(trifluoromethyl)-1,3-oxazolidin-2-one]	154 to 156 °C	291 nM	234 nM
N#Cc1ccc(-c2csc(N3C(=O)OC[C@H]3C(F)(F)F)n2)cc1 [Example 65, 4-{2-[(4S)-2-Oxo-4-(trifluoromethyl)-1,3-oxazolidin-3-yl]-1,3-thiazol-4-yl}benzonitrile]	208 to 209 °C	43.2 nM	60.3 nM
N#Cc1ccc(-c2csc(N3C(=O)OC[C@@H]3C(F)(F)F)n2)cc1 [Example 66, 4-{2-[(4R)-2-oxo-4-(trifluoromethyl)-1,3-oxazolidin-3-yl]-1,3-thiazol-4-yl}benzonitrile]	208 to 209 °C	482 nM	212 nM
O=C1OC[C@@H](CF)N1c1nc(-c2ccc(Br)cc2)cs1 [Example 73, (4S)-3-[4-(4-Bromophenyl)-1,3-thiazol-2-yl]-4-(fluoromethyl)-1,3-oxazolidin-2-one]	148 to 150 °C	21.4 nM	31.5 nM
N#Cc1ccc(-c2csc(N3C(=O)OC[C@H]3CF)n2)cc1 [Example 74, 4-{2-[(4S)-4-(Fluoromethyl)-2-oxo-1,3-oxazolidin-3-yl]-1,3-thiazol-4-yl}benzonitrile]	195 to 196 °C	19.8 nM	45.1 nM
O=C1NCCN1c1nc(-c2ccc(Br)cc2)cs1 [Example 75, 1-[4-(4-Bromophenyl)-1,3-thiazol-2-yl]imidazolidin-2-one]	230 to 233 °C	1070 nM	2080 nM

From patent US7618990B2, “Oxazolidone derivatives as PR modulators” (Wyeth, priority 2006, dated 2009)
